# Measurements taken from PMC6553477 (Journal of pharmaceutical sciences, 2018).
# pEC50: −log10 of the molar value. Several values for one entry are separate records, joined by “and”; a condition that tells them apart may be missing. Equal values may be shown once. Read-outs that look alike come from different tables or passages of the source. Marks after values point to notes of the source that are not given here.
# How the values were obtained:
# [1] = in vivo
# [2] = PBMC intracellular drug concentrations after single subcutaneous injection; settings: for fold higher AUCPBMC, DcNP versus free drug: ATV-RTV-TFV DcNP compared with free form; for fold higher AUCPBMC, DcNP versus free drug / AUC: macaques; for AUC: monkey, sc, AUCPBMC, ATV-RTV-TFV DcNP, single subcutaneous dose, geometric mean (95% CI)
# HIV-1 protease = settings: reported; cited from earlier work
# [3] = Drug association efficiency to DcNP by equilibrium dialysis; assay type: physicochemical; settings: ATV-RTV-TFV DcNP, DSPC-DSPE-mPEG2000 (9:1)
# [4] = Mechanism-based pharmacokinetic; assay type: in vivo, Macaca nemestrina; settings: MBPK model
# HIV [5] = settings: read-out: in vitro effective concentration that produces 90% of the maximal effect (EC90); reported in vitro; cited from earlier work
# [6] = for concentration at 192 h: concentration in LNMCs at 192 h after injection
# [7] = for MBRT / CL/F: ATV-RTV-TFV DcNP; for MBRT / half-life: plasma; for half-life: monkey, in vivo
# [8] = in vivo, sc; for time concentrations were sustained in plasma: macaque (Macaca nemestrina)
# [9] = monkey, in vivo, sc; cited from earlier work
# [10] = in vivo, sc, cited from earlier work
# in vivo = settings: Macaca nemestrina (macaque), sc, LNMC/plasma ratio 192 h
# [11] = cited from earlier work; for LNMC concentration 24 h / LNMC concentration 192 h: in vivo, sc
# HIV [12] = settings: read-out: in vivo EC50; nonhuman primates; cited from earlier work
# [13] = macaque (Macaca nemestrina), sc
# [14] = ATV-RTV-TFV DcNP versus TLC-ART 101
# [15] = ATV-RTV-TFV DcNP compared with free form, macaques, 24 h
# [16] = ATV-RTV-TFV DcNP, subcutaneous, macaques, 24 h
# [17] = ATV-RTV-TFV DcNP compared with free form, macaques
# [18] = single subcutaneous dose, macaques, geometric mean (95% CI)
# [19] = sc, Terminal t1/2, ATV-RTV-TFV DcNP, single subcutaneous dose, macaques, geometric mean (95% CI)
# [20] = TLC-ART 101, subcutaneous, macaques, 24 h
# [21] = TLC-ART 101, subcutaneous, macaques, 192 h
Compound,"time drug concentration in PBMCs was sustained [1, 13]","fold higher AUCPBMC, DcNP versus free drug [2] [fold]",AUC ([2]; PBMC (intracellular)) [µM·h],% Association to DcNP [3],"K07, rate of elimination ([4]; Atazanavir-DcNP)","V5_DcNP, central compartmental apparent volume for DcNP ([4]; Atazanavir-DcNP)","V7_Free, central compartmental apparent volume for free drug ([4]; Atazanavir-DcNP)","k21, rate of DcNP absorption into the first delayed compartment ([4]; Atazanavir-DcNP)","k31, rate of DcNP absorption into the second delayed compartment ([4]; Atazanavir-DcNP)","k41, rate of DcNP absorption into the third delayed compartment ([4]; Atazanavir-DcNP)","k75, rate of degradation of DcNP into free drug between central compartments ([4]; Atazanavir-DcNP)","tlag1, delayed constant of delayed compartment 1 ([4]; Atazanavir-DcNP)","tlag2, delayed constant of delayed compartment 2 ([4]; Atazanavir-DcNP)","tlag3, delayed constant of delayed compartment 3 ([4]; Atazanavir-DcNP)","LNMC concentration 24 h [6, 16]","fold higher plasma AUC, DcNP versus free drug [7, 17] [fold]","MBRT [7, 18]","CL/F [7, 18]","half-life [7, 19] [days]",time concentrations were sustained in plasma [8],also measured
"COC(=O)N[C@H](C(=O)N[C@@H](Cc1ccccc1)[C@@H](O)CN(Cc1ccc(-c2ccccn2)cc1)NC(=O)[C@@H](NC(=O)OC)C(C)(C)C)C(C)(C)C [ATV, atazanavir]",up to 336 h,33,435,99 ± 8.2% and 99 ± 8%,0.29 (-) 1/h,1259^a (569-1680) L/kg,113 (97-133) L/kg,0.15 (0.1-0.3) 1/h,0.05 (-) 1/h,0.7 (-) 1/h,0.04^a (0.01-0.06) 1/h,0.25 (-) h,16 (9-25) h,440 (336-520) h,0.10 (0.04-0.24) μM,5,650 (370-1230) h,11^a (8-13) L/[h·kg],19.5,up to 14 days,"fold higher PBMC exposure (AUCPBMC) of ATV than LPV ([2]; ATV-RTV-TFV DcNP versus TLC-ART 101, macaques): 5.5 fold; fold higher antiretroviral activity compared with several other commercialized protease inhibitors (HIV-1 protease): 2- to 20 fold; fold higher V5_DcNP for ATV than LPV [4, 14]: 180 fold; fold lower k75 for ATV than LPV [4, 14]: 18 fold; EC90 (HIV [5]): 13 nM; fold higher intracellular LNMC concentration at 24 h, DcNP versus free drug [6, 15]: 3 fold; fold lower LNMC-to-plasma ratio at 24 h, DcNP versus free drug [6, 15]: 4 fold; fold higher intracellular LNMC concentration at 192 h, DcNP versus free drug ([6]; ATV-RTV-TFV DcNP compared with free form, macaques, 192 h): 3 fold; intracellular LNMC concentration at 192 h ([6]; ATV-RTV-TFV DcNP, macaques, 192 h): 0.09 mμM; LNMC/PBMC ratio 192 h ([6]; ATV-RTV-TFV DcNP, subcutaneous, macaques, 192 h, n=2): 2.4^b; intracellular LNMC concentration at 192 h ([6]; free drug, macaques, 192 h): 0.03 mμM; concentration at 24 h ([6]; macaque (Macaca nemestrina), lymph node mononuclear cells (LNMC), sc, concentration in LNMCs at 24 h after injection, ATV-RTV-TFV DcNP, subcutaneous, primates, 24 h): 100 nM; concentration at 192 h ([6]; macaque (Macaca nemestrina), lymph node mononuclear cells (LNMC), sc, ATV-RTV-TFV DcNP, subcutaneous, primates, 192 h): 90 nM; fold longer MBRT, DcNP versus free drug [7, 17]: 116 fold; fold lower CL/F, DcNP versus free drug [7, 17]: 4 fold; fold higher CL/F, free ATV compared with free LPV ([7]; free drugs, macaques): 9 fold; fold lower AUC, free ATV compared with free LPV ([7]; free drugs, macaques): 8 fold; half-life ([7]; terminal half-life, DcNP ATV, macaques (Table 2)): ~20 days"
"Cc1cccc(C)c1OCC(=O)N[C@@H](Cc1ccccc1)[C@@H](O)C[C@H](Cc1ccccc1)NC(=O)[C@H](C(C)C)N1CCCNC1=O [LPV, lopinavir]",–,–,–,–,–,–,–,–,–,–,–,–,–,–,–,–,–,–,–,–,"AUCPBMC [9]: 22 (10-33)^c h·μM; AUC (plasma, extrapolated to infinity) [10]: 4.8 (4.2-4.6)^c h·μM; CL/F ([10]; monkey): 5 L/[h·kg]; Terminal t1/2 ([10]; monkey): 8.7 (5.3-10.4)^c h"
"CC(C)c1nc(CN(C)C(=O)N[C@H](C(=O)N[C@@H](Cc2ccccc2)C[C@H](O)[C@H](Cc2ccccc2)NC(=O)OCc2cncs2)C(C)C)cs1 [RTV, ritonavir]",up to 336 h,–,85,92 ± 7.1% and 92 ± 7%,0.08 (0.03-0.12) 1/h,67 (22-94) L/kg,79 (56-122) L/kg,0.40 (0.35-0.46) 1/h,0.05 (-) 1/h,0.5 (-) 1/h,0.19 (0.06-0.26) 1/h,0.3 (-) h,41 (35-46) h,186 (169-199) h,0.40^a (0.06-3.00) μM,–,110 (46-266) h,4 L/[h·kg],3.04,up to 14 days,"last PBMC concentration timepoint detected ([1]; macaque (Macaca nemestrina)): 48 h; Kp at 192 h (in vivo): 23; AUC ([2]; PBMC, PBMC intracellular): 79 µM·h; LNMC concentration ([6]; RTV in ATV-RTV-TFV DcNP, macaques, unit as printed in text (Table 4: 24 h)): 0.4 mM; LNMC concentration 24 h [11]: 6.3^a (4.4-8.5) μM; LNMC concentration 192 h [11]: 1.00 (0.06-2.00) μM"
"C[C@H](Cn1cnc2c(N)ncnc21)OCP(=O)(O)O [TFV, 9-(2-Phosphonyl-methoxypropyly)adenine]",up to 192 h,5,–,10 ± 0.8% and 10 ± 1%,0.4 (0.08-2) 1/h,0.7 (0.5-0.9) L/kg,1.1 (0.8-1.3) L/kg,0.05 (-) 1/h,0.1 (-) 1/h,0.15 (-) 1/h,0.026 (0.009-0.03) 1/h,1 h,23 (-) h,106 (76-132) h,–,35,128 (65-254) h,0.004 (0.002-0.015) L/[h·kg],2.75,up to 14 days,"AUCPBMC ([1]; monkey, sc): 1134 (588-1554) h·μM; pEC50 (HIV [12]): 7.31; k76, rate of absorption of free drug ([4]; Atazanavir-DcNP): 1.7 (0.6-2.5) 1/h; k78, rate from periphery to central free compartment ([4]; Atazanavir-DcNP): 0.06 (-) 1/h; k87, rate from central free compartment to periphery ([4]; Atazanavir-DcNP): 0.02 (-) 1/h; LNMC/PBMC ratio 24 h ([6]; free drug combination, subcutaneous, macaques, 24 h): 1.8^d; concentration at 192 h ([6]; macaque (Macaca nemestrina), in vivo, sc, ATV-RTV-TFV DcNP, subcutaneous, primates, 192 h): 130 nM; LNMC/PBMC ratio 24 h [11, 20]: 0.93 (0.39-2.3); LNMC/plasma ratio 24 h [11, 20]: 3 (1.5-5.3); LNMC/PBMC ratio 192 h [11, 21]: 4.4 (0.45-340.0); LNMC/plasma ratio 192 h [11, 21]: 6.8 (1.4-75); LNMC concentration 24 h [11]: 25 (14-47) μM; LNMC concentration 192 h [11]: 19 (3.6-280) μM; fold longer MBRT, DcNP versus free drug [7, 17]: 41 fold; fold longer apparent t1/2, DcNP versus free drug [7, 17]: 7 fold; fold lower CL/F, DcNP versus free drug [7, 17]: 23 fold; AUC (plasma, extrapolated to infinity) ([8]; monkey): 3057 (1029-9078) h·μM"
